Reference: patent US20070155803A1, “Protease inhibitors” (ProZymex A/S, priority 2003, published 2007)
Square brackets hold non-standard residues; d marks the D form. Peptide text beside a SMILES is read from it. Phe(3-F) = N[C@@H](Cc1cccc(F)c1)C(=O)O; hPhe = N[C@@H](CCc1ccccc1)C(=O)O; Abu = CC[C@H](N)C(=O)O; azaGly = NNC(=O)O

Assays:
[1] = molecular target: T1, Human DPP-I (Homo sapiens, UniProt P53634); test: Human Dipeptidyl Peptidase I (DPP-I) assay, AFC substrate; format: biochemical; details: Gly-Phe-AFC substrate, pH 6.0, read-out: Primary enzymatic screening (IC50) DPP-I
T1 construct: purchased UniZyme A/S
T1 sequence (P53634 231-394 limits assumed): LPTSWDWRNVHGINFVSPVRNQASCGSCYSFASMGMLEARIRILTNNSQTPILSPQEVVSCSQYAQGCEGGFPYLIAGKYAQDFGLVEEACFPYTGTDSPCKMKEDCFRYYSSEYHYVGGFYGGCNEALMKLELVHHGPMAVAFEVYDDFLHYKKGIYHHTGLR
T1 sequence (P53634 395-463 limits assumed): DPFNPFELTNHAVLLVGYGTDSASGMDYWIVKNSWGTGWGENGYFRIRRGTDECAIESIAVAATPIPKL
T1 sequence (P53634 25-143 limits assumed): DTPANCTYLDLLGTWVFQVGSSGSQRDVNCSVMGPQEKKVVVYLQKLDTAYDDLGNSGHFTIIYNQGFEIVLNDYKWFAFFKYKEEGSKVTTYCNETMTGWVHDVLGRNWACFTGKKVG
Method: Human Dipeptidyl Peptidase I (DPP-I) Assay
Using this assay, the IC50 value of a compound of the invention as a DPP-I inhibitor was determined using an AFC substrate.
100 mM sodium phosphate (8.9 g Na2HPO4; M=177.99), 150 mM KCl (5.6 g KCl; M=74.6) and 1.5 mM EDTA (279 mg EDTA; M=372.2) was dissolved in 500 mL H2O, and pH was adjusted to 6.0. Cysteine*HCl (Sigma C-1276; M=157.6), 1 mg/mL assay buffer, corresponding to 6 mM, was added to the solution for activation of the DPP-I enzyme.
Gly-Phe-AFC*TFA (Enzyme Systems Products AFC-033) was used as the substrate for determination of IC50 values. […] The substrate was solubilized in DMSO to give a 7.5 mM stock solution (2.2 mg of substrate was added to 0.5 mL DMSO).
Human DPP-I (hDDP-I; obtained from UniZyme A/S, DK-2970 Horsholm, Denmark) was stored at −20° C. in a buffer containing 2.5 mM Na-phosphate, 150 mM NaCl, 2 mM cysteamine, 50% glycerol, pH 7.0 at a concentration of 2.5 mg/mL. This stock solution was diluted 200 times in the assay buffer.
Th assay was performed in 96-well plates. […] The excitation wavelength was 400 nm, and the emission was measured at 505 nm for 10 minutes at 37° C. […] In the software (SOFTmax Pro) used for data collection from the fluorometer (Molecular Devices: Gemini XS), it was erisured that the measured slopes were linear (R^2>0.99). […]

[2] = molecular target: T2, CYP2C9 (Homo sapiens, UniProt P11712); test: CYP2C9 assay (Vivid CYP2C9 Red Screening Kit); format: in vitro ADME; details: 20 μM cutoff; read-out: Metabolism: CYP enzymes (20 μM cutoff or IC50) CYP2C9
T2 construct: purchased PanVera Vivid CYP2C9 Red Screening Kit
T2 sequence (P11712 whole entry): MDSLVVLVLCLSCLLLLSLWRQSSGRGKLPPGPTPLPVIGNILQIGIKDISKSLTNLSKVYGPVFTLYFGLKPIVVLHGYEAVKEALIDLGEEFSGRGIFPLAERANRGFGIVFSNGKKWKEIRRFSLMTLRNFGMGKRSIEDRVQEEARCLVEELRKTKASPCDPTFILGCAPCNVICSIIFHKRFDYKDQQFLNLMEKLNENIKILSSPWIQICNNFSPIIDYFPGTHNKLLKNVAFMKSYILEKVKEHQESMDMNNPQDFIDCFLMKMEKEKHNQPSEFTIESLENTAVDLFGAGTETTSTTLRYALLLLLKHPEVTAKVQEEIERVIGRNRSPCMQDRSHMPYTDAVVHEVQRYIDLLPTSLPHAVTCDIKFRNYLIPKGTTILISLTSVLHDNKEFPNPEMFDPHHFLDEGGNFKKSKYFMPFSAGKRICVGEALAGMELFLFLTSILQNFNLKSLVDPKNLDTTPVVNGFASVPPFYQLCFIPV
Method: Tubes thawed on ice. 2× reaction buffer dispensed (room temperature) in two eppendorf tubes (for Mix A and Mix B).
Controls or compounds of the invention: Diluted to a concentration of 50 μM. Positive control compound: α-naphthoflavone.
Negative controls: DMSO and H2O.
Mix A: 485 μL reaction buffer, 10 μL regeneration system, 5 μL Baculosome reagent. Mixed gently and placed on ice.
Mix B: 88.5 μL reaction buffer, 1.5 μL substrate, 10 μL 10 mM NADP^+.
In a 96-well plate (Costar c-3904), 40 μL of 50 μM sample dispensed. 50 μl Mix A added. Incubated 20 min. at rt. Then, 10 μl of Mix B added. Fluorescence determined (Molecular Devices, SPECTRAmax Gemini EM): Ex: 409 nm, Em: 460 nm, at 37° C. for 20 min. (Automix: 5 s, top read.).
Following the procedure for CYP1A2, using the appropriate kits below, the effect of a compound of the invention on the other CYP enzymes was determined:
Vivid® CYP2C9 Red Screening Kit from PanVera.

[3] = molecular target: T3, cellular rat DPP-I (RBL-2H3 cells) (Rattus norvegicus, UniProt P80067); test: Cellular DPP-I assay; format: cell-based; details: concentration and time not given
T3 construct: The RBL-2H3 cells (basophilic leukaemia cell line), were obtained from the American Type Culture Collection; endogenous in cells; host or cells: RBL-2H3 cells (ATCC)
T3 sequence (P80067 25-462): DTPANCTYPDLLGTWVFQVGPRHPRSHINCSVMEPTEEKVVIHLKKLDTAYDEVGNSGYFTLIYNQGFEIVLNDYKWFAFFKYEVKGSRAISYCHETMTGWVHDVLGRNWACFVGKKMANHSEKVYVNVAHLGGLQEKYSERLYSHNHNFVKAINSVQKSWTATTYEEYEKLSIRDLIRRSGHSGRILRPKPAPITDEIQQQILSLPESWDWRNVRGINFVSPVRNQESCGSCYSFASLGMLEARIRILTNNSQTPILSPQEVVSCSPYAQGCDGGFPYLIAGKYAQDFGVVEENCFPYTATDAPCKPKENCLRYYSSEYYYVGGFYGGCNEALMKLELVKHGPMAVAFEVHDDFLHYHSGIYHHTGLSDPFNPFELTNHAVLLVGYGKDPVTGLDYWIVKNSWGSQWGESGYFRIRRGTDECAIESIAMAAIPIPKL
Method: The following assay was used to the determine the inhibitory effect of compounds of the invention on cellular rat DPP-I.
The RBL-2H3 cells (basophilic leukaemia cell line), were obtained from the American Type Culture Collection. Cells were cultured at 37° C. in humidified air atmosphere with 5% CO2. Cells were grown in complete media (CM) consisting of RPMI (GIBCO) supplemented with 10% heat-inactivated foetal bovine serum (FBS; GIBCO), 100 U/mL penicillin and 100 ug/mL streptomycin (GIBCO).
All cell-based experiments employing inhibitors of DPP-I were performed by addition of the compound (kept below −20° C. as a 10 mM stock solution in DMSO (Sigma)) for indicated time and concentrations to sub-confluent cell cultures growing on culture dishes. All experiments were set up in triplicates. Following the treatment, cells were washed twice in ice-cold PBS (Sigma) and scraped from the culture dish. After another wash in PBS cells were lysed in ice-cold H2O containing 0.3% Triton×100. An additional volume of buffer containing 40 mM MOPS, 2M NaCl, 2 mM EDTA and 20% of glycerol was added. The cell lysate was clarified by centrifugation at 3000 rpm for 10 min. The resulting supernatant was transferred to eppendorf tubes. The Coomassie Plus Protein Assay (Pierece) was used to determine protein levels of the samples.
In Vitro Measurement of DPP-I Activity: […]

[4] = Metabolic stability in rat liver microsomes; format: in vitro ADME; details: pH 7.4; rat liver microsomes 0.3 mg/mL, test compound 1 μM, 37° C.; read-out: Metabolic stability (t1/2 in min.) Rat liver microsomes
Method: Assay for Determination of Metabolic Stability is Rat Liver Microsomes
The assay was performed at Cerep (Seattle) according to the protocol described by Kuhnz et. al. (Kuhnz, W., Gieschen, H. Drug Metab. Dispos., 26, 1120-1127), using rat liver microsomes (0.3 mg/mL), test compound (1 μM), NADP (1 mM), and G6P (5 mM), and G6PDHase (1 U/mL) with 0.6% methanol/0.6% acetonitrile in water. Incubation was performed at 37° C. in phosphate buffer (50 mM, pH=7.4), and the samples were analyzed for remaining product ion (selected reaction monitoring)by HPLC-MS/MS (Thermo Finnigan) at 0, 15, 30, 45 and 60 min. intervals.

**Q.** For `CC[C@H](N)C(=O)NNC(=O)N[C@@H](CCc1ccccc1)C(=O)N[C@@H](Cc1cccc(F)c1)C(N)=O` [Example 11, 1-(2S-2-Aminobutanoyl)-4-[2S-N-[2S-3-(m-fluorophenyl)propan-2-yl-amide]-4-phenylbutan-2-yl-amide]semicarbazide] (H-[Abu][azaGly][hPhe][Phe(3-F)]-NH2), which IC50 [1] is on record?
**A.** The IC50 was 40 ± 6 nM.

**Q.** And the IC50 [2]?
**A.** Its IC50 is greater than 20000 nM.

**Q.** And the “Cellular (% inhibition) DPP-I (RBL-2H3 cells)” value [3]?
**A.** Its value is 54%.

**Q.** And the half-life at 1 μM [4]?
**A.** Its half-life at 1 μM is 23 min.
